Measured values as given in article PMC5085626, “Characterization of a β-Adrenergic-Like Octopamine Receptor in the Oriental Fruit Fly, Bactrocera dorsalis (Hendel)” (International Journal of Molecular Sciences, 2016).
Counter-ions that a name gives are not always drawn. Blank lines part the entries; values can stand above or below the molecule they belong to.

Experiments:
[1] = molecular target: T1, BdOctβR1 (Bactrocera dorsalis, UniProt A0ABM3J3U4); test: Agonist cAMP response assay (GloSensor luminescence) of BdOctβR1 transiently expressed in HEK-293 cells; format: cell-based; conditions: for EC50: BdOctβR1 in HEK-293 cells, cAMP luminescence, read-out: median effective concentration (EC50)
Description: A 10-fold serial dilution of the ligands octopamine, tyramine, dopamine, naphazoline, and phentolamine was applied to the cells. […] The authentic ligand octopamine was selected as the model ligand for normalization of the luminescence. A concentration–response curve was generated for each receptor by logistic fitting in Origin 8.6 (OriginLab, Northampton, MA, USA) as previously reported.

[2] = tested on: DmOctβR1; design: method as in PMID 15998303; conditions: DmOctβR1 of D. melanogaster; cited from earlier work
[3] = tested on: empty pcDNA3.1 vector-transfected HEK-293 cells; test: Negative control: cAMP luminescence in empty pcDNA3.1 vector-transfected HEK-293 cells; format: cell-based; conditions: ligands at 1.00 × 10^−6 M
[4] = tested on: AmOctβR1; design: method as in PMID 24266860; conditions: AmOctβR1 of A. mellifera; cited from earlier work
[5] = molecular target: T1, BdOctβR1; test: cell-based
Description: (§1) For the cAMP response assays, we used the non-lytic GloSensor cyclic AMP assay kit (Promega) for monitoring intracellular cAMP in live cells. At the same time, the empty pcDNA3.1 vector was transfected in HEK-293 cells as a negative control. The methods for transient expression of BdOctβR1 in HEK-293 cells and procedures for the assays were followed as previously described [41, 42, 43, 44]. Thirty hours after the transfection, the cells were collected and preincubated with 1% GloSensor substrate in HEK-293 cells (Invitrogen) before the test. Ligands being tested were plated in each well of the 96-well plate. As described previously, the cells were injected into a well, and the changes in luminescence were monitored [45].
(§2) The antagonist assay was examined with serial dilutions of antagonists in the transfected cells on a luminescence detection systems (Berthold Technologies). Basically, the antagonistic activity assay was conducted in 2 sequential treatments. In the 1st treatment, various concentrations of ligands (50 μL in volume) were plated in each well, including a solvent (DMEM, Dulbecco’s modified Eagle’s medium) as control. Following the injection of the cells into the well, a 30-min incubation with the tested ligands was conducted. Subsequently, the 2nd treatment was conducted. The cells were treated with 1.00 × 10^−6 M octopamine, which was the minimum concentration inducing the maximal activity, and the luminescent response was measured. For the assays, the cells treated with DMEM in both the 1st and 2nd treatment were set as background. The cells were treated with DMEM in the 1st treatment, while 1.00 × 10^−6 M octopamine in the 2nd treatment, without adding any antagonist, served as positive control. Relative luminescence of ligand was normalized to the largest positive control response in each plate (1.00 × 10^−6 M octopamine) after background subtractions [43]. The values calculated in the treatment were used to construct the inhibitor concentration–response curves. […]

[6] = tested on: DmOctβR1; design: method as in PMID 15998303; conditions: DmOctβR1 in Drosophila; cited from earlier work
[7] = molecular target: T1, BdOctβR1
Description: as §1, §2

T1 sequence (A0ABM3J3U4 entry or part of it): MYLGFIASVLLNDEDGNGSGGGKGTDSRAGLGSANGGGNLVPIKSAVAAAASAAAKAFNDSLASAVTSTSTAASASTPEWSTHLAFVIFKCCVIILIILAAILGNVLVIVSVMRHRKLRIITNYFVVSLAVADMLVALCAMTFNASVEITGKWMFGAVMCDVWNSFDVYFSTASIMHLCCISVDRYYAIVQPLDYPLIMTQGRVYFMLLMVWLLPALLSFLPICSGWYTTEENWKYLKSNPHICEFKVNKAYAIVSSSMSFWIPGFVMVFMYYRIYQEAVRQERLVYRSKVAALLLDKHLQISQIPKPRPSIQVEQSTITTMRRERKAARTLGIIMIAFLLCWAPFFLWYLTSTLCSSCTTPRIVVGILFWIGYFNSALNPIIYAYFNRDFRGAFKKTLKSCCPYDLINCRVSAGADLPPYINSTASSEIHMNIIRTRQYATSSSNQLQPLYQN

EC50 [1]: 0.911 nM
Structure (SMILES): NCC(O)c1ccc(O)cc1 (racemic) [octopamine, (±)-octopamine hydrochloride]
EC50 [2]: 5.56 nM
effect on cAMP luminescence / cAMP production in empty-vector cells [3]: not
EC50 [4]: 43.9 nM

IC50 [5]: 2660 nM
antagonistic activity (in words) [7]: weak antagonistic activity
Structure (SMILES): CN(C)CCCN1c2ccccc2Sc2ccc(Cl)cc21 [chlorpromazine, chlorpromazine hydrochloride]
antagonistic activity (in words) [6]: ineffective

EC50 [1]: 3320 nM
Structure (SMILES): NCCc1ccc(O)c(O)c1 [dopamine, dopamine hydrochloride]

Structure (SMILES): CN1CCN2c3ccccc3Cc3ccccc3C2C1 (centres unmarked) [mianserin, mianserin hydrochloride]
antagonistic activity (in words) [6]: blocked

EC50 [1]: 0.635 nM
Structure (SMILES): c1ccc2c(CC3=NCCN3)cccc2c1 [naphazoline, naphazoline hydrochloride]

Emax at 10 µM ([1]; HEK293, at 1.00 × 10^−5 M, normalized to octopamine at 1 × 10^−5 M (=100%), read-out: agonistic effect (relative cAMP luminescence)): ~20%
IC50 [5]: 3800 nM
Structure (SMILES): Cc1ccc(N(CC2=NCCN2)c2cccc(O)c2)cc1 [phentolamine, phentolamine hydrochloride]

EC50 [1]: 19.7 nM
Structure (SMILES): NCCc1ccc(O)cc1 [tyramine, Tyramine hydrochloride]
effect on cAMP luminescence / cAMP production in empty-vector cells [3]: not
